From PubChem BioAssay (NCI)
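Abbreviation: GI50, concentration required for 50% inhibition of growth. Definition used: TGI = concentration required for complete inhibition of growth.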

Columns and labels:
Test in all cases: NCI anticancer screen, dose series, 384-well format
[1] = test system: U251 glioblastoma
[2] = test system: T-47D breast
[3] = test system: HCT-116 colon
[4] = test system: HL-60(TB) leukemia
[5] = test system: M14 melanoma
[6] = test system: MDA-MB-435 melanoma
[7] = test system: LOX IMVI melanoma
[8] = test system: SK-OV-3 ovarian
[9] = test system: PC-3 prostate
[10] = test system: TK-10 renal
[11] = test system: A498 renal
[12] = test system: UACC-257 melanoma
[13] = test system: DU-145 prostate
[14] = test system: UACC-62 melanoma
[15] = test system: NCI/ADR-RES ovarian
[16] = test system: A549 NSCLC
[17] = test system: CAKI-1 renal
[18] = test system: SK-MEL-28 melanoma
[19] = test system: NCI-H522 lung
[20] = test system: MALME-3M melanoma
[21] = test system: NCI-H226 lung
[22] = test system: OVCAR-5 ovarian
[23] = test system: OVCAR-4 ovarian
[24] = test system: RPMI-8226 leukemia
[25] = test system: HCC-2998 colon
[26] = test system: SW-620 colon
[27] = test system: MCF7 breast
[28] = test system: BT-549 breast
[29] = test system: OVCAR-8 ovarian
[30] = test system: SN12C renal
[31] = test system: RXF 393 renal
[32] = test system: NCI-H23 lung
[33] = test system: UO-31 renal
[34] = test system: HS 578T breast
[35] = test system: IGROV1 ovarian
[36] = test system: NCI-H322M lung
[37] = test system: SNB-75 CNS
[38] = test system: HOP-62 NSCLC
[39] = test system: SR leukemia
[40] = test system: SF-539 CNS
[41] = test system: ACHN renal
[42] = test system: SF-268 CNS
[43] = test system: KM12 colon
[44] = test system: HCT-15 colon
[45] = test system: MOLT-4 leukemia
[46] = test system: EKVX NSCLC
[47] = test system: MDA-MB-231 breast
[48] = test system: MDA-MB-468 breast
[49] = test system: HT29 colon
[50] = test system: SK-MEL-5 melanoma
[51] = test system: 786-0 renal
[52] = test system: SF-295 CNS
[53] = test system: OVCAR-3 ovarian
[54] = test system: SNB-19 CNS
[55] = test system: NCI-H460 NSCLC
[56] = test system: HOP-92 NSCLC
[57] = test system: COLO 205 colon

Q: `Nc1cccc2c1CN(C1CCC(=O)NC1=O)C2=O` (centres undefined) was tested. Which GI50 [1] did it give?
A: > 100 µM

Q: What about the TGI [1] of the same molecule?
A: > 100 µM

Q: What about the GI50 [2] of the same molecule?
A: > 100 µM

Q: What about the TGI [2] of the same molecule?
A: > 100 µM

Q: And the GI50 [3]?
A: > 100 µM

Q: And the TGI [3]?
A: > 100 µM

Q: And the GI50 [4]?
A: > 100 µM

Q: What about the TGI [4] of the same molecule?
A: > 100 µM

Q: And the GI50 [5]?
A: > 100 µM

Q: What about the TGI [5] of the same molecule?
A: > 100 µM

Q: What about the GI50 [6] of the same molecule?
A: > 100 µM

Q: And the TGI [6]?
A: > 100 µM

Q: And the GI50 [7]?
A: > 100 µM

Q: And the TGI [7]?
A: > 100 µM

Q: And the GI50 [8]?
A: > 100 µM

Q: What about the TGI [8] of the same molecule?
A: > 100 µM

Q: What about the GI50 [9] of the same molecule?
A: > 100 µM

Q: What about the TGI [9] of the same molecule?
A: > 100 µM

Q: And the GI50 [10]?
A: > 100 µM

Q: And the TGI [10]?
A: > 100 µM

Q: What about the GI50 [11] of the same molecule?
A: > 100 µM

Q: And the TGI [11]?
A: > 100 µM

Q: What about the GI50 [12] of the same molecule?
A: > 100 µM

Q: And the TGI [12]?
A: > 100 µM

Q: What about the GI50 [13] of the same molecule?
A: > 100 µM

Q: What about the TGI [13] of the same molecule?
A: > 100 µM

Q: What about the GI50 [14] of the same molecule?
A: > 100 µM

Q: And the TGI [14]?
A: > 100 µM

Q: And the GI50 [15]?
A: > 100 µM

Q: What about the TGI [15] of the same molecule?
A: > 100 µM

Q: And the GI50 [16]?
A: > 100 µM

Q: And the TGI [16]?
A: > 100 µM

Q: What about the GI50 [17] of the same molecule?
A: > 100 µM

Q: And the TGI [17]?
A: > 100 µM

Q: What about the GI50 [18] of the same molecule?
A: > 100 µM

Q: And the TGI [18]?
A: > 100 µM

Q: What about the GI50 [19] of the same molecule?
A: > 100 µM

Q: And the TGI [19]?
A: > 100 µM

Q: What about the GI50 [20] of the same molecule?
A: > 100 µM

Q: And the TGI [20]?
A: > 100 µM

Q: What about the GI50 [21] of the same molecule?
A: > 100 µM

Q: What about the TGI [21] of the same molecule?
A: > 100 µM

Q: And the GI50 [22]?
A: > 100 µM

Q: What about the TGI [22] of the same molecule?
A: > 100 µM

Q: What about the GI50 [23] of the same molecule?
A: > 100 µM

Q: And the TGI [23]?
A: > 100 µM

Q: And the GI50 [24]?
A: > 100 µM

Q: And the TGI [24]?
A: > 100 µM

Q: And the GI50 [25]?
A: > 100 µM

Q: What about the TGI [25] of the same molecule?
A: > 100 µM

Q: And the GI50 [26]?
A: > 100 µM

Q: And the TGI [26]?
A: > 100 µM

Q: And the GI50 [27]?
A: > 100 µM

Q: What about the TGI [27] of the same molecule?
A: > 100 µM

Q: What about the GI50 [28] of the same molecule?
A: > 100 µM

Q: What about the TGI [28] of the same molecule?
A: > 100 µM

Q: And the GI50 [29]?
A: > 100 µM

Q: And the TGI [29]?
A: > 100 µM

Q: And the GI50 [30]?
A: > 100 µM

Q: What about the TGI [30] of the same molecule?
A: > 100 µM

Q: And the GI50 [31]?
A: > 100 µM

Q: And the TGI [31]?
A: > 100 µM

Q: And the GI50 [32]?
A: > 100 µM

Q: And the TGI [32]?
A: > 100 µM

Q: What about the GI50 [33] of the same molecule?
A: > 100 µM

Q: What about the TGI [33] of the same molecule?
A: > 100 µM

Q: What about the GI50 [34] of the same molecule?
A: > 100 µM

Q: What about the TGI [34] of the same molecule?
A: > 100 µM

Q: And the GI50 [35]?
A: > 100 µM

Q: And the TGI [35]?
A: > 100 µM

Q: And the GI50 [36]?
A: > 100 µM

Q: And the TGI [36]?
A: > 100 µM

Q: What about the GI50 [37] of the same molecule?
A: > 100 µM

Q: What about the TGI [37] of the same molecule?
A: > 100 µM

Q: And the GI50 [38]?
A: > 100 µM

Q: And the TGI [38]?
A: > 100 µM

Q: What about the GI50 [39] of the same molecule?
A: > 100 µM

Q: And the TGI [39]?
A: > 100 µM

Q: What about the GI50 [40] of the same molecule?
A: > 100 µM

Q: And the TGI [40]?
A: > 100 µM

Q: And the GI50 [41]?
A: > 100 µM

Q: And the TGI [41]?
A: > 100 µM

Q: And the GI50 [42]?
A: > 100 µM

Q: And the TGI [42]?
A: > 100 µM

Q: And the GI50 [43]?
A: > 100 µM

Q: And the TGI [43]?
A: > 100 µM

Q: And the GI50 [44]?
A: > 100 µM

Q: And the TGI [44]?
A: > 100 µM

Q: And the GI50 [45]?
A: > 100 µM

Q: What about the TGI [45] of the same molecule?
A: > 100 µM

Q: What about the GI50 [46] of the same molecule?
A: > 100 µM

Q: And the TGI [46]?
A: > 100 µM

Q: And the GI50 [47]?
A: > 100 µM

Q: What about the TGI [47] of the same molecule?
A: > 100 µM

Q: What about the GI50 [48] of the same molecule?
A: > 100 µM

Q: What about the TGI [48] of the same molecule?
A: > 100 µM

Q: And the GI50 [49]?
A: > 100 µM

Q: And the TGI [49]?
A: > 100 µM

Q: What about the GI50 [50] of the same molecule?
A: > 100 µM

Q: What about the TGI [50] of the same molecule?
A: > 100 µM

Q: What about the GI50 [51] of the same molecule?
A: > 100 µM

Q: And the TGI [51]?
A: > 100 µM

Q: What about the GI50 [52] of the same molecule?
A: > 100 µM

Q: What about the TGI [52] of the same molecule?
A: > 100 µM

Q: What about the GI50 [53] of the same molecule?
A: > 100 µM

Q: What about the TGI [53] of the same molecule?
A: > 100 µM

Q: And the GI50 [54]?
A: > 100 µM

Q: And the TGI [54]?
A: > 100 µM

Q: And the GI50 [55]?
A: > 100 µM

Q: And the TGI [55]?
A: > 100 µM

Q: What about the GI50 [56] of the same molecule?
A: > 100 µM

Q: And the TGI [56]?
A: > 100 µM

Q: And the GI50 [57]?
A: > 100 µM

Q: What about the TGI [57] of the same molecule?
A: > 100 µM
